For one assay, the target named is Cholinesterase (Homo sapiens, UniProt P06276). The assay can be described thus: Inhibition of human BChE using butyrylthiocholineiodide as substrate incubated for 10 mins by Ellman's method.
Sequence of Acetylcholinesterase (P22303 whole entry): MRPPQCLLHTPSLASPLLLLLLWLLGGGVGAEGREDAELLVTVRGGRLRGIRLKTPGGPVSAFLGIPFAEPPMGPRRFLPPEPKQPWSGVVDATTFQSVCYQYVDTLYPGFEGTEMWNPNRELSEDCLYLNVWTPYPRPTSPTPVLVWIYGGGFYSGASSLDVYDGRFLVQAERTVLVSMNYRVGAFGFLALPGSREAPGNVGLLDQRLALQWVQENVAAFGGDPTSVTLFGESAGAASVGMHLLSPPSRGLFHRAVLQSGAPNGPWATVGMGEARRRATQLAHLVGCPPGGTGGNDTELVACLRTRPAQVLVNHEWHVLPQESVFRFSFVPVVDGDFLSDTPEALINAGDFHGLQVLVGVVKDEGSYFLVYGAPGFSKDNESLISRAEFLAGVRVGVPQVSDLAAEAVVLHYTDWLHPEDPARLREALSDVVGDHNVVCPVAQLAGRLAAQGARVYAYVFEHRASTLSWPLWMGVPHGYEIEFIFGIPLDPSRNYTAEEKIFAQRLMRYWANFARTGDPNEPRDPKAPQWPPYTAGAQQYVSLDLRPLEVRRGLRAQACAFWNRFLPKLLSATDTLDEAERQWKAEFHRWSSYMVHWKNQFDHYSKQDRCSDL
Sequence of Cholinesterase (P06276 whole entry): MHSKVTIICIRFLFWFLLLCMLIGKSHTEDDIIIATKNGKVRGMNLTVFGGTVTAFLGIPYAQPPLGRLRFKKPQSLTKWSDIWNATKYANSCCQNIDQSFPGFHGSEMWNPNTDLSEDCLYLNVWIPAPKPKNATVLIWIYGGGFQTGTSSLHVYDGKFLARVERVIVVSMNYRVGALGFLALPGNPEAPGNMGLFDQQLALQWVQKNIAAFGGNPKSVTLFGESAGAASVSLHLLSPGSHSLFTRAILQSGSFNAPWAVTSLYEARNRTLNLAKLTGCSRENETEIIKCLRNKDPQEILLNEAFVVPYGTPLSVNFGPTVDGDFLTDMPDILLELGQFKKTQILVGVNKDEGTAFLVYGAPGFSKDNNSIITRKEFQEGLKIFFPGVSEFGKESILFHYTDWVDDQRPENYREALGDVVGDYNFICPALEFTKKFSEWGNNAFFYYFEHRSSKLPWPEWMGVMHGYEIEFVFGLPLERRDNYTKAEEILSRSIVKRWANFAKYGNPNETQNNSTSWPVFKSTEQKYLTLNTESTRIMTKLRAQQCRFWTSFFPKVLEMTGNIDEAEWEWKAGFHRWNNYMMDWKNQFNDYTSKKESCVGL
Compound `CNC(=O)c1sc(-c2ccnc(NC(=O)C3CC3)c2)nc1OCC1CCN(Cc2cccc([N+](=O)[O-])c2)CC1` displayed an IC50 of 9 µM.

`CNC(=O)c1sc(-c2ccnc(NC(=O)C3CC3)c2)nc1OCC1CCN(Cc2ccc(Cl)c(Cl)c2)CC1`: half-maximal inhibition (IC50) was put at 65 µM.

In turn, `CNC(=O)c1sc(-c2ccnc(NC(=O)C3CC3)c2)nc1OCC1CCN(Cc2ccc(F)c(F)c2)CC1` showed an IC50 of 20 µM.

The target of the next assay is Glycogen synthase kinase-3 beta (Homo sapiens, UniProt P49841). The assay can be described thus: biochemical.
Sequence of Glycogen synthase kinase-3 beta (P49841 whole entry): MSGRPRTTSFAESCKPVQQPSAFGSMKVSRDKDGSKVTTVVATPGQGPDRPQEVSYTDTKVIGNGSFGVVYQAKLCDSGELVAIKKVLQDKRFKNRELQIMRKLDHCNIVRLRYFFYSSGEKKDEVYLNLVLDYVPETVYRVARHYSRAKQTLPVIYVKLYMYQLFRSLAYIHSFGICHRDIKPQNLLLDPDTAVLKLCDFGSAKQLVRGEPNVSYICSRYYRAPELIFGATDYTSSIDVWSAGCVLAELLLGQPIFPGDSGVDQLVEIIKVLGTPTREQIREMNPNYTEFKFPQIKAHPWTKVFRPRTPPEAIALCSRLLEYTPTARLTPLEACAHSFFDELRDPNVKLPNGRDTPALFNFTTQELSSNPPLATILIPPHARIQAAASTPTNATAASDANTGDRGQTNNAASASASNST
Description: Inhibition of recombinant human N-terminal His6-tagged GSK3beta H350L mutant expressed in baculovirus infected Sf21 cells using prephosphorylated polypeptide as substrate incubated for 1 min followed by substrate addition and measured after 30 mins by Kinase-Glo luminescence assay
The compound `CNC(=O)c1sc(-c2ccnc(NC(=O)C3CC3)c2)nc1OCC1CCN(Cc2cccc([N+](=O)[O-])c2)CC1` yielded a half-inhibitory concentration (IC50) of 0.005 µM.

`CNC(=O)c1sc(-c2ccnc(NC(=O)C3CC3)c2)nc1OCC1CCN(Cc2ccc(Cl)c(Cl)c2)CC1` gave an IC50 of 0.041 µM.

In turn, `CNC(=O)c1sc(-c2ccnc(NC(=O)C3CC3)c2)nc1OCC1CCN(Cc2ccc(F)c(F)c2)CC1` showed an IC50 of 0.062 µM.

Another assay addresses Acetylcholinesterase (Homo sapiens, UniProt P22303). The assay can be described thus: Inhibition of human recombinant AChE expressed in HEK293 cells using acetylthiocholine iodide as substrate incubated for 10 mins by Ellman's method. Type of assay: cell-based. On the technique in general: In Ellman's method for cholinesterases, released thiocholine reacts with DTNB.
On to `CNC(=O)c1sc(-c2ccnc(NC(=O)C3CC3)c2)nc1OCC1CCN(Cc2cccc([N+](=O)[O-])c2)CC1`, for which the concentration for half-maximal inhibition (IC50) is 6 µM.

As to `CNC(=O)c1sc(-c2ccnc(NC(=O)C3CC3)c2)nc1OCC1CCN(Cc2ccc(Cl)c(Cl)c2)CC1`, the IC50 amounted to 97 µM.

As for `CNC(=O)c1sc(-c2ccnc(NC(=O)C3CC3)c2)nc1OCC1CCN(Cc2ccc(F)c(F)c2)CC1`, the IC50 amounted to 80 µM.

Broadly, the IC50 is the concentration that inhibits the measured activity by half.
